# From US9120776B2, “Condensed heterocyclic compound” (Takeda Pharmaceutical Company Limited, priority 2011, dated 2015)
# Tests used:
# human PBMC = test: IL17 Production Test in Human PBMC; format: cell-based; conditions: 72 h, inhibitory rate at 10 μM of test compound, anti-CD3/CD28 stimulation, 3 days, IL-17A by ELISA
# Protocol: Peripheral blood mononuclear cells (PBMC) collected from human peripheral blood by a density gradient centrifugation method were stimulated by Dynabeads (registered trade mark; anti-CD3/CD28 antibody) and cultured at 37° C. for 3 days. The compound was dissolved in DMSO and then added thereto. After culture for 3 days under such conditions, the concentration of IL-17A in the culture supernatant obtained by centrifugation was measured by ELISA to evaluate the effect of the compound on IL-17 production.
# IFN-γ gene expression = IFN-γ gene expression induced by anti-CD3 antibody stimulation in mouse colon; format: in vivo; conditions: 30, 100 and 300 mg/kg, po, Balb/c mice
# Protocol: (§1) An anti-CD3 antibody (5 μg/500 μL/mouse, BioXcell) or saline (500 μL/mouse) was intraperitoneally administered to Balb/c mice (female, 8 weeks old). Three hours after the administration, the mice were anesthetized by ether inhalation, and euthanized by cervical spine fracture dislocation. Then, the mice underwent laparotomy, and colons were isolated. The obtained colons were washed with saline, and then, immersed in RNA stabilization buffer (RNAlater, QIAGEN) at 4° C. for 18 hours or longer. Meanwhile, a suspension of a compound in 0.5% methylcellulose was orally administered an hour before administration of anti-CD3 antibody.
# The colon tissues were retrieved from RNAlater, and immediately immersed in 5 mL of RLT buffer (RNeasy Mini Kit, QIAGEN). Then, the tissues were homogenized at room temperature. Total RNA was extracted from the homogenized solution in accordance with the protocol of RNeasy Mini Kit (QIAGEN), and cDNA was prepared using high capacity RNA-to-cDNA Kit (Applied biosystems). mRNAs of various cytokines were detected by realtime-PCR (TaqMan PCR) using the obtained cDNA as a template. […] The expression levels of each gene were shown as normalized values calculated using β-actin expression level. […]
# IL-17A gene expression [1] = test: IL-17A gene expression induced by anti-CD3 antibody stimulation in mouse colon; format: in vivo; conditions: po, Balb/c mice
# Protocol: as §1
# The colon tissues were retrieved from RNAlater, and immediately immersed in 5 mL of RLT buffer (RNeasy Mini Kit, QIAGEN). Then, the tissues were homogenized at room temperature. Total RNA was extracted from the homogenized solution in accordance with the protocol of RNeasy Mini Kit (QIAGEN), and cDNA was prepared using high capacity RNA-to-cDNA Kit (Applied biosystems). mRNAs of various cytokines were detected by realtime-PCR (TaqMan PCR) using the obtained cDNA as a template. TaqMan universal master mixII (Applied biosystems) was used as PCR buffer, and TaqMan Gene Expression Assays (Applied biosystems): Mm00439619_m1 (IL-17A), Mm00801778 m1 (IFN-γ) and 43252341E (β-actin) were used for detection of each cytokine gene, respectively. The expression levels of each gene were shown as normalized values calculated using β-actin expression level.
# All the data were shown as mean values±SE. Statistical analyses were performed by Student's t test and William's test.
# IL-17A gene expression [2] = test: IL-17A gene expression in lymph node of EAE rat model; format: in vivo; conditions: 30, 100 and 300 mg/kg, po twice a day; EAE-sensitized Lewis rat, 5th day
# Protocol: A killed Mycobacterium tuberculosis, H37Ra (DIFCO), was suspended at the concentration of 2 mg/mL in Freund Incomplete adjuvant (DIFCO), and 5 mg of MBP (Sigma) was dissolved in 1.25 mL of saline (Otsuka). These two solutions were mixed at the ratio of 1:1 using glass syringe with a three-way stopcock until emulsion was obtained. The emulsion was intracutaneously administered to the bottom of the right foot of Lewis rats (male, 7 weeks old) at 0.1 mL/rat.
# A suspension of the compound of Example 14 in 0.5% methylcellulose was orally administered twice a day from the day of sensitization at the dose of 30, 100 or 300 mg/kg. The last administration was performed on the 5th day after sensitization, and an autopsy was performed 4 hours after the last administration.
# The autopsy was performed on the 5th day after the sensitization, and popliteal lymph nodes of the right leg were collected. […] The synthesized cDNA was detected by PCR reaction using Taqman Gene Expression Master Mix (Applied Biosystems) and 7900HT Fast realtime PCR system (Applied Biosystems) (Stage 1: 50° C., 2 min, Stage 2: 95° C., 10 min, Stage 3: 95° C., 15 sec, 60° C., 1 min, 40 cycle). […]
# Th17 cells [3] = test: Mouse Th17 Cell Differentiation Test (IL-17A in culture supernatant, ELISA); format: cell-based; conditions: inhibitory rate at 10 μM of test compound; mouse CD4 positive naive T cells, 4 days, IL-17A by ELISA; 10 µM
# Protocol: CD4 positive naive T cells were collected from the spleen cells of BALB/c mice (female, 8-11w, Charles River Laboratories Japan, Inc.) using CD4+CD62L+ T Cell Isolation kit II (Miltenyi Biotec). The CD4 positive naive T cells in a 96 well plate (3×10^5 cells/well) were stimulated (37° C. for culture) with anti-mouse CD3ε antibody (Bio X cell) (10 μg/mL, solid phase) and anti-CD28 antibody (Bio X cell) (5 μg/mL) for 4 days in the presence of anti-IFN-γ antibody (BioLegend), anti-IL-4 antibody (BioLegend), anti-IL-2 antibody (BioLegend), IL-6, TGF-β and IL-23 to differentiate into Th17 cells. The compound was dissolved in DMSO and then added thereto. The cells were cultured under these conditions for 4 days, and differentiation of the Th17 cells was evaluated by using the concentration of IL-17A, which was measured by ELISA, in the culture supernatant obtained by centrifugation.
# Th17 cells [4] = test: Human Th17 Cell Differentiation Test (IL-17A in culture supernatant, ELISA); format: cell-based; conditions: 144 h; inhibitory rate at 10 μM of test compound; human CD4 positive naive T cells, 6 days, IL-17A by ELISA
# Protocol: CD4 positive naive T cells were isolated from peripheral blood mononuclear cells (PBMC) collected from human peripheral blood by a density gradient centrifugation method. The CD4 positive naive T cells were seeded in a 96 well plate (2×10^4 cells/well), and stimulated (37° C. for culture) with anti-CD 3/28Ab Dynabeads (Invitrogen) for 6 days in the presence of IL-1β, IL-6, IL-23, TGFβ, anti-IFNγ Ab (BioLegend) and anti-IL-4 Ab (BioLegend) to differentiate into Th17 cells. The compound was dissolved in DMSO and then added thereto. After culture for 6 days, the concentration of IL-17A in the culture supernatant obtained by centrifugation was measured by ELISA to evaluate differentiation of the Th17 cells.
smiles,measurement,setting,value
"CCn1c2ccccc2c2cc(NC(=O)CC(C)CC(=O)Nc3ccc(C#N)c(Cl)c3)ccc21 (centres unmarked) [Example 14, N-(3-chloro-4-cyanophenyl)-N′-(9-ethyl-9H-carbazol-3-yl)-3-methylpentanediamide]",inhibition at 10 µM,human PBMC,95%
same,effect on IFN-γ expression,IFN-γ gene expression,did not affect IFN-γ expression
same,inhibition rate of IL-17A expression,IL-17A gene expression [1]; 30 mg/kg,10%
same,inhibition rate of IL-17A expression,IL-17A gene expression [1]; 100 mg/kg,25%
same,inhibition rate of IL-17A expression,IL-17A gene expression [1]; 300 mg/kg,53%
same,effect on increase in IL-17A gene expression in lymph node,IL-17A gene expression [2],tended to suppress the increase in IL-17A gene expression
same,inhibitory rate (%),Th17 cells [3],96.0%
same,inhibition at 10 µM,Th17 cells [4],99.3%
